Experimental data reported in patent US20250161408A1, “PEPTIDIC INHIBITORS OF AMYLOID SELF- AND CROSS-ASSEMBLY” (TECHNISCHE UNIVERSITÄT MÜNCHEN, priority 2022, published 2025).
Entries after “also recorded” stand apart in the source; their conditions may differ. One block for each compound: values may come before it. Non-standard residues stand in square brackets, D forms with d. Residues, ends and D or L forms follow the SMILES beside them. NMeF = CN[C@@H](Cc1ccccc1)C(=O)O; NMeV = CN[C@H](C(=O)O)C(C)C; Nle = CCCC[C@H](N)C(=O)O

Key:
fIAPP = target: T1, fIAPP (Homo sapiens, UniProt P10997); test: Dot blot binding of Fluos-peptides to fIAPP; conditions: Fluos-peptides 0.2 μM
T1 construct: made in house; host or cells: chemical synthesis (Fmoc-SPPS), air-oxidised, RP-HPLC purified
T1 sequence (P10997 34-70 limits assumed): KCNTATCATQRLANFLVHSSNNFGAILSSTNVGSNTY
Experimental: After blocking (5% milk in TBS-T, 2 h, RT) and several washing steps (with TBS-T and ThT buffer), membranes were incubated with N-terminal fluorescein-labeled ACMs (Fluos-ACMs) at 0.2 μM for IAPP-related membranes or 2 μM for Aβ42-related membranes; incubation was overnight (10° C.) in ThT buffer (containing 1% HFIP). To control for fibril autofluorescence, similar membranes were incubated in parallel with buffer only. Bound peptides were visualized using a LAS-400 mini instrument (Fujifilm) equipped with a suitable fluorescence filter.

IAPP = target: T2, IAPP (Homo sapiens, UniProt P10997); test: MTT reduction assay of IAPP-mediated cell damage in RIN5fm cells; assay type: cell-based
T2 construct: made in house; host or cells: chemical synthesis (Fmoc-SPPS), air-oxidised, RP-HPLC purified
T2 sequence (P10997 34-70 limits assumed): T1 sequence (P10997 34-70 limits assumed)
Experimental: Briefly, cells were cultivated and platted in 96-well plates. Aliquots of solutions used for the ThT binding assays (see “ThT binding assays”) were diluted with cell medium at the indicated incubation time points (24 h or 7 days) and added to the cells at the indicated final concentrations. Following incubation with the cells for ˜20 h (37° C., humidified atmosphere, 5% CO2) cell damage was assessed by measuring cellular MTI reduction. IC50 values were determined.

Aβ42 [1] = target: T3, Aβ42 (Homo sapiens, UniProt P05067); test: cell-based; conditions: read-out: IC50 (±SD) of inhibitory effects of ACMs on Aβ42-mediated cell damage
T3 construct: the 40(42)-residue peptide Aβ40(42); made in house; host or cells: chemical synthesis (Fmoc-SPPS), monomer isolated by SEC
T3 sequence (P05067 672-713): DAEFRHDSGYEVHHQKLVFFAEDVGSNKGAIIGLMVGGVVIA
Experimental: Following incubation with the cells for ˜20 h (37° C., humidified atmosphere, 5% CO2), cell damage was assessed by measuring cellular MTT reduction.
Solutions were aged for 1.5 h (37° C., shaking 500 rpm). Aliquots were diluted with cell medium, incubated with PC12 cells at the indicated final concentrations for ˜20 h and cellular MTT reduction was measured as above.

Aβ42 [2] = target: T3, Aβ42; test: Fluorescence spectroscopic titration of FITC-Aβ42 with ACMs; conditions: read-out: app. KD (±SD) of ACM/Aβ42 interactions; N-terminal FITC-labelled Aβ42 5 nM, pH 7.4; means from three binding curves
Experimental: Fluorescence spectroscopic studies were performed with a Jasco FP-6500 fluorescence spectrophotometer. Briefly, excitation was at 492 nm and spectra were measured between 500 and 600 nm. All titrations were performed in freshly made solutions of synthetic N-terminal fluorescently labeled peptide (5 nM) and various amounts of unlabeled peptide in 10 mM sodium phosphate buffer, pH 7.4 (1% HFIP) within 2-5 min following solution preparation. Under these experimental conditions, freshly made solutions of Fluos-IAPP and FITC-Aβ42 (5 nM) consist mostly of monomers and the same was found for Fluos-ACMs (5 nM) (FIG. 13e and data not shown). Apparent binding affinities (app. KDs) were estimated by using 1/1 binding models. However, due to the high self-assembly propensities of involved peptides more complex models might also apply. Determined app. KDs are means (±SD) from three binding curves derived from three independent titration assays.

Aβ42 [3] = target: T3, Aβ42; test: ThT binding assay of Aβ42 fibrillogenesis (self-assembly, seeding, cross-seeding); assay type: biochemical
Experimental: Aβ42 fibrillogenesis-related studies. […] Peptide incubations were performed in the presence of ThT in 96-well black MTPs (FluoroNunc, Thermo Fisher Scientific). […] Values of seeds or buffer alone were subtracted from the data in self-/cross-seeding assays; all other data shown are raw data except for data in FIG. 27b which were normalized).
Incubations (37° C.) and determination of ThT fluorescence were performed as for all other Aβ42-related studies.

[4] = tested on: cultured murine BV2 microglia; test: Phagocytosis of Aβ42 species with or without ACM; assay type: cell-based, mouse; conditions: 1/1, co-incubation 2 h
Experimental: Briefly, BV2 cells were maintained in GlutaMAX-supplemented RPMI1640 medium containing 10% FBS and 1% penicillin/streptomycin on poly-L-ornithine-coated flasks. For the phagocytosis assay, BV2 cells were seeded into 24-well plates containing coverslips in serum-free RPMI1640-GlutaMAX and further incubated for 24 h (5% CO2, 37° C.) to reach 10000 cells/well. Primary BMDMs were obtained from bone-marrow monocytes isolated from wildtype C57BL/6 mice, plated in 24-well plates at a density of 10000cells/well, and differentiated with L929 cell-conditioned medium (RPMI1640, 10% FBS, 1% penicillin/streptomycin) for 7 days. Thereafter, cells were incubated with aged peptide solutions at 37° C. for 6 h. […]
Following incubation of the cells with the peptides, supernatants were removed and cells on the coverslips were washed 5 times with ice-cold 1×PBS, fixed with 4% paraformaldehyde, washed with 1×PBS, permeabilized with 0.2% Triton-X 100, and rinsed three times with cold 1×PBS. […] Images were acquired using a Leica DMi8 fluorescence microscope. The percentage of cells that had taken up peptides was calculated by dividing the number of BV2 cells or BMDMs that phagocytosed TAMRA-labeled peptide by the total cell count, multiplied by 100. Significance was analyzed by unpaired student's t-test.

proteinase K = test: Proteinase K (PK) fibril digestion assay with dot blot; conditions: IAPP-related fibrils; 37° C.; dot blot with anti-fIAPP and anti-Aβ antibodies
Experimental: Solutions made as above but w/o PK were used as controls for 100% undigested fibrils. Solutions were incubated at 37° C. and at indicated time points aliquots were dotted onto nitrocellulose membranes and spots were quickly dried by air. Membranes were washed (TBS-T) and blocked (5% milk in TBS-T, overnight (10° C.)). […] Primary antibodies were combined with goat anti-mouse-POD (1:1000) or donkey anti-rabbit-POD (1:5000); detection was as under “Cross-linking, NuPAGE and WB”.

Binding to fIAPP (dot blot) (fIAPP): bind fIAPP
Compound: QKL(N-Me)VF(N-Me)FAED - Val-Gly-Ser - NKGAIIGLNleVGGVV (H-QKL[NMeV]F[NMeF]AEDVGSNKGAIIGL[Nle]VGGVV-OH; SMILES CCCC[C@H](NC(=O)[C@H](CC(C)C)NC(=O)CNC(=O)[C@@H](NC(=O)[C@@H](NC(=O)[C@H](C)NC(=O)CNC(=O)[C@H](CCCCN)NC(=O)[C@H](CC(N)=O)NC(=O)[C@H](CO)NC(=O)CNC(=O)[C@@H](NC(=O)[C@H](CC(=O)O)NC(=O)[C@H](CCC(=O)O)NC(=O)[C@H](C)NC(=O)[C@H](Cc1ccccc1)N(C)C(=O)[C@H](Cc1ccccc1)NC(=O)[C@H](C(C)C)N(C)C(=O)[C@H](CC(C)C)NC(=O)[C@H](CCCCN)NC(=O)[C@@H](N)CCC(N)=O)C(C)C)[C@@H](C)CC)[C@@H](C)CC)C(=O)N[C@H](C(=O)NCC(=O)NCC(=O)N[C@H](C(=O)N[C@H](C(=O)O)C(C)C)C(C)C)C(C)C) [VGS-VF]

Kd (Aβ42 [2]): 0.0145 ± 0.008 µM
Compound: CCCC[C@H](NC(=O)[C@H](CC(=O)O)NC(=O)[C@H](CCC(=O)O)NC(=O)[C@H](C)NC(=O)[C@H](Cc1ccccc1)N(C)C(=O)[C@H](Cc1ccccc1)NC(=O)[C@H](C(C)C)N(C)C(=O)[C@H](CC(C)C)NC(=O)[C@H](CCCCN)NC(=O)[C@@H](N)CCC(N)=O)C(=O)N[C@@H](CCCC)C(=O)N[C@@H](CCCC)C(=O)N[C@@H](CC(N)=O)C(=O)N[C@@H](CCCCN)C(=O)NCC(=O)N[C@@H](C)C(=O)N[C@H](C(=O)N[C@H](C(=O)NCC(=O)N[C@@H](CC(C)C)C(=O)N[C@@H](CCCC)C(=O)N[C@H](C(=O)NCC(=O)NCC(=O)N[C@H](C(=O)N[C@H](C(=O)O)C(C)C)C(C)C)C(C)C)[C@@H](C)CC)[C@@H](C)CC [Nle3-VF] (H-QKL[NMeV]F[NMeF]AED[Nle][Nle][Nle]NKGAIIGL[Nle]VGGVV-OH)
Effect of addition to preformed fIAPP on fIAPP cytotoxicity (MTT reduction) (IAPP; RIN5fm cells, ACM 33 μM added to fIAPP […], 1 day, fIAPP 500 nM): does not affect fIAPP cytotoxicity
Effect on formation of cytotoxic IAPP assemblies (MTT reduction) (IAPP; RIN5fm cells, aged (24 h or 7 days) IAPP/peptide 1/2 solutions): fully suppressed; also recorded: suppress formation of toxic IAPP assemblies
IC50 (IAPP; read-out: IC50 (±SD) of inhibitory effects of ACMs on IAPP-mediated cell damage): 0.065 µM
IC50 (Aβ42 [1]): 0.367 µM
Effect of addition to preformed toxic Aβ42 oligomers on fibrillogenesis (ThT binding) (Aβ42 [3]; 2 h-aged Aβ42, 1/1): delay of fibrillogenesis
Effect of addition to already nucleated Aβ42 fibrillogenesis (ThT binding) (Aβ42 [3]; Aβ42 5 μM, post-nucleation addition): does not affect amounts of already formed ThT-positive fibrils
Effect of addition to TAMRA-oAβ42 on Aβ42 phagocytosis [4]: increased Aβ42 phagocytosis

Compound: CC[C@H](C)[C@H](NC(=O)[C@H](C)NC(=O)CNC(=O)[C@H](Cc1ccccc1)NC(=O)[C@H](CC(N)=O)NC(=O)[C@H](CC(N)=O)NC(=O)[C@H](CO)NC(=O)[C@H](CO)NC(=O)[C@H](Cc1c[nH]cn1)NC(=O)[C@@H](NC(=O)[C@H](CC(C)C)NC(=O)[C@H](Cc1ccccc1)NC(=O)[C@H](CC(N)=O)NC(=O)[C@H](C)NC(=O)[C@H](CC(C)C)NC(=O)[C@H](CCCNC(=N)N)NC(=O)[C@H](CCC(N)=O)NC(=O)[C@@H](NC(=O)[C@H](C)NC(=O)[C@@H]1CSSC[C@H](NC(=O)[C@@H](N)CCCCN)C(=O)N[C@@H](CC(N)=O)C(=O)N[C@@H]([C@@H](C)O)C(=O)N[C@@H](C)C(=O)N[C@@H]([C@@H](C)O)C(=O)N1)[C@@H](C)O)C(C)C)C(=O)N[C@@H](CC(C)C)C(=O)N[C@@H](CO)C(=O)N[C@@H](CO)C(=O)N[C@H](C(=O)N[C@@H](CC(N)=O)C(=O)N[C@H](C(=O)NCC(=O)N[C@@H](CO)C(=O)N[C@@H](CC(N)=O)C(=O)N[C@H](C(=O)N[C@@H](Cc1ccc(O)cc1)C(N)=O)[C@@H](C)O)C(C)C)[C@@H](C)O [IAPP]
Time to degradation by proteinase K (proteinase K): at least 30 h
